From PMC11822212, “High-throughput screening identifies Aurora kinase B as a critical therapeutic target for Merkel cell carcinoma” (Nature Communications, 2025)
Like-named read-outs stand apart in the source and are kept apart here.

Experiments:
[1] = system: MCC cell lines (WAGA, MKL-1, MKL-2, MCC13, MCC26, UISO); assay: qHTS cell viability, all six MCC cell lines as a group (mean AUC, MCC.avg); format: cell-based, human
[2] = system: MCC26 cells (VN-MCC); assay: qHTS cell viability (CellTiter-Glo, 72 h; primary and follow-up small molecule screen); format: cell-based, human
[3] = system: WAGA cells (VP-MCC); assay: as above; format: cell-based, human
[4] = system: UISO cells (VN-MCC); assay: as above; format: cell-based, human
[5] = system: VN-MCC cell lines (MCC13, MCC26, UISO); assay: qHTS cell viability, VN-MCC cell lines as a group (mean AUC, VN.MCC.avg); format: cell-based, human
[6] = system: VP-MCC cell lines (WAGA, MKL-1, MKL-2); assay: qHTS cell viability, VP-MCC cell lines as a group (mean AUC, VP.MCC.avg); format: cell-based, human
[7] = system: HACAT cells; assay: qHTS cell viability (CellTiter-Glo, 72 h; primary screen), control cell line; format: cell-based, human
[8] = system: CRL-7250 cells; assay: as above; format: cell-based
[9] = system: control cell lines (HACAT, HEK293T, CRL-7250, NIH-3T3); assay: qHTS cell viability, control cell lines as a group (mean AUC, Control.avg); format: cell-based
[10] = system: HEK293T cells; assay: qHTS cell viability (CellTiter-Glo, 72 h; primary screen), control cell line; format: cell-based, human
[11] = system: MCC13 cells (VN-MCC); assay: qHTS cell viability (CellTiter-Glo, 72 h; primary and follow-up small molecule screen); format: cell-based, human
[12] = system: NIH-3T3 cells; assay: qHTS cell viability (CellTiter-Glo, 72 h; primary screen), control cell line; format: cell-based, mouse
[13] = system: MKL-2 cells (VP-MCC); assay: qHTS cell viability (CellTiter-Glo, 72 h; primary and follow-up small molecule screen); format: cell-based, human
[14] = system: MKL-1 cells (VP-MCC); assay: as above; format: cell-based, human
[15] = system: six MCC cell lines and four control cell lines; assay: qHTS cell viability, all 10 cell lines screened; format: cell-based
[16] = NPC library, mean AUC of six MCC cell lines
[17] = NPC library, 8-point DRC, area under dose-response curve
[18] = NPC library, mean AUC of VN-MCC cell lines
[19] = NPC library, mean AUC of VP-MCC cell lines
[20] = NPC library, 8-point DRC, control cell line
[21] = NPC library, mean AUC of control cell lines

Compound: CN(C)CCc1c[nH]c2ccc(O)cc12 [Bufotenine]
- MCC_Avg_AUC [1]: 427.925
- MCC26_AUC [2]: 406.205
- WAGA_AUC [3]: 422.913
- UISO_AUC [4]: 423.411
- Control-VN-MCC [5]: 64.2925
- VN-MCC_Avg_AUC [5]: 429.178
- Control-VP-MCC [6]: 66.7991
- VP-MCC_Avg_AUC [6]: 426.671
- HACAT_AUC [7]: 494.192
- CRL7250_AUC [8]: 497.008
- Control_Avg_AUC [9]: 493.471
- HEK293T_AUC [10]: 488.2
- MCC13_AUC [11]: 457.919
- NIH3T3_AUC [12]: 494.482
- MKL2_AUC [13]: 417.248
- MKL1_AUC [14]: 439.853
- Control-MCC [15]: 65.5458

Compound: O=C1CC2(CCCC2)CC(=O)N1CCCCN1CCN(c2ncccn2)CC1 [Buspirone]
- MCC_Avg_AUC [1, 16]: 437.234
- MCC26_AUC [2, 17]: 427.549
- WAGA_AUC [3, 17]: 446.274
- UISO_AUC [4, 17]: 435.953
- Control-VN-MCC ([5]; NPC library, Control AUC minus VN-MCC AUC (therapeutic window)): 50.1753
- VN-MCC_Avg_AUC [5, 18]: 437.494
- Control-VP-MCC ([6]; NPC library, Control AUC minus VP-MCC AUC (therapeutic window)): 50.6954
- VP-MCC_Avg_AUC [6, 19]: 436.974
- HACAT_AUC [7, 20]: 483.772
- CRL7250_AUC [8, 20]: 487.221
- Control_Avg_AUC [9, 21]: 487.669
- HEK293T_AUC [10, 20]: 489.604
- MCC13_AUC [11, 17]: 448.981
- NIH3T3_AUC [12, 20]: 490.08
- MKL2_AUC [13, 17]: 407.552
- MKL1_AUC [14, 17]: 457.095
- Control-MCC ([15]; NPC library, Control AUC minus MCC AUC (therapeutic window)): 50.4353

Compound: [H]/N=C(\N/C(=N/[H])NCCCCCCNC(=N)NC(=N)Nc1ccc(Cl)cc1)Nc1ccc(Cl)cc1 [Chlorhexidine]
- MCC_Avg_AUC ([1]; NPC library, mean AUC of all 6 MCC cell lines): 390.247
- MCC_Avg_AUC [1, 16]: 390.247
- MCC26_AUC ([2]; NPC library, qHTS dose-response AUC, MCC26): 406.333
- WAGA_AUC ([3]; NPC library, qHTS dose-response AUC, WAGA): 400.622
- UISO_AUC ([4]; NPC library, qHTS dose-response AUC, UISO): 378.135
- Control-VN-MCC ([5]; Control AUC minus VN-MCC AUC): 36.8736
- VN-MCC_Avg_AUC [5, 18]: 405.887
- Control-VN-MCC ([5]; NPC library, therapeutic window: Control avg AUC minus VN-MCC avg AUC): 36.8736
- Control-VP-MCC ([6]; Control AUC minus VP-MCC AUC): 68.1526
- VP-MCC_Avg_AUC [6, 19]: 374.608
- Control-VP-MCC ([6]; NPC library, therapeutic window: Control avg AUC minus VP-MCC avg AUC): 68.1526
- HACAT_AUC ([7]; NPC library, qHTS dose-response AUC, HACAT control): 458.563
- CRL7250_AUC ([8]; NPC library, qHTS dose-response AUC, CRL7250 control): 454.576
- Control_Avg_AUC [9, 21]: 442.76
- HEK293T_AUC ([10]; NPC library, qHTS dose-response AUC, HEK293T control): 398.25
- MCC13_AUC ([11]; NPC library, qHTS dose-response AUC, MCC13): 433.192
- NIH3T3_AUC ([12]; NPC library, qHTS dose-response AUC, NIH3T3 control): 459.651
- MKL2_AUC ([13]; NPC library, qHTS dose-response AUC, MKL2): 345.753
- MKL1_AUC ([14]; NPC library, qHTS dose-response AUC, MKL1): 377.448
- Control-MCC ([15]; NPC library, therapeutic window: Control avg AUC minus MCC avg AUC): 52.5131
